The series addresses T1, sGC α1/β1 heterodimer (Homo sapiens, UniProt Q02108+Q02153).
T1 construct: expressed in transfected cells; host or cells: CHO-K1 (clone #7, CHO-K1/sGC)
T1 sequence (Q02108 1-690): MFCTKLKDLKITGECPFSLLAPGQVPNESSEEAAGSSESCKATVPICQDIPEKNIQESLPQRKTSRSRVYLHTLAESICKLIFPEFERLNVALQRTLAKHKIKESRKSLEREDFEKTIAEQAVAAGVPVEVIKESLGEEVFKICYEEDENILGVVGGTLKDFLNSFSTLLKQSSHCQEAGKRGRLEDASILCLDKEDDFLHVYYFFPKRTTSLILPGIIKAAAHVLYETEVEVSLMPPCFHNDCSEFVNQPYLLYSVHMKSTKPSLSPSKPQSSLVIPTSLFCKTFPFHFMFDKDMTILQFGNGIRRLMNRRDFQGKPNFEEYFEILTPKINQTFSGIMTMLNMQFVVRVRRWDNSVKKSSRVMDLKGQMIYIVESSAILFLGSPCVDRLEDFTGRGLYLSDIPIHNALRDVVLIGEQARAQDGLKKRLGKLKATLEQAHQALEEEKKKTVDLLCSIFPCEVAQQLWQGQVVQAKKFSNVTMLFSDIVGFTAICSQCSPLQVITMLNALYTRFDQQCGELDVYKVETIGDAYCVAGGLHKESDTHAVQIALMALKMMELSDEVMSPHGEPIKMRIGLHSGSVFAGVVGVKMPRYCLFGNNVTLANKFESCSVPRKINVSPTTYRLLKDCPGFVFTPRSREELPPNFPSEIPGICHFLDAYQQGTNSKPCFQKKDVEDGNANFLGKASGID
T1 sequence (Q02153 1-619): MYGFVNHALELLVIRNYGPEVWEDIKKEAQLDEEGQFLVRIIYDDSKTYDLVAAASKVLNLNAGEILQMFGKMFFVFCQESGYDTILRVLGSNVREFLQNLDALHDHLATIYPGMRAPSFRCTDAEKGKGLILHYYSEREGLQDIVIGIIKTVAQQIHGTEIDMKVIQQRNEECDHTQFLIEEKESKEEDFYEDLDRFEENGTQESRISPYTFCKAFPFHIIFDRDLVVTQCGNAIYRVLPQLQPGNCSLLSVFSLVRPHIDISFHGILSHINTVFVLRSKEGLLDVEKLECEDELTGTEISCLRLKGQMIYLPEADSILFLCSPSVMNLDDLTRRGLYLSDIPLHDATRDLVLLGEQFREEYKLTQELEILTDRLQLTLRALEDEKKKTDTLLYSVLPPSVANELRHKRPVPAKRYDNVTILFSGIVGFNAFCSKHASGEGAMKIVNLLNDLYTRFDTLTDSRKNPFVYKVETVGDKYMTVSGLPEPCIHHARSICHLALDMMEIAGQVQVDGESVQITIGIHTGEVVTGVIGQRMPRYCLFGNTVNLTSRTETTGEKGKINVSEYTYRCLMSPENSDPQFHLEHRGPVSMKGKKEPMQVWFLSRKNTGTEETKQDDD
The experiment in a line: Cell-based sGC Functional Assay (CASA Assay): cGMP generation in CHO-K1/sGC cells, HTRF readout. The note with it: without ODQ incubation; for EC50: read-out: IP (inflection point). An excerpt:
Cell-based sGC Functional Assay (CASA Assay) Rationale: sGC is a heme-containing enzyme that converts GTP to secondary messenger cGMP. Increases in cGMP levels affect several physiological processes including vasorelaxation through multiple downstream pathways. […] Heme-dependent activators (HDAs) preferentially activate sGC containing a ferrous Deme group. To determine the effect of sGC activators on enzyme activity, the CASA assay was developed to monitor the generation of cGMP in a cell line that stably expresses the heterodimeric sGC protein. Methods: A CHO-K1 cell line stably expressing the sGC α1/β1 heterodimer was generated using a standard transfection protocol. CHO-K1 cells were transfected with plasmids pIREShyghsGCα1 and pIRESneo-hsGCβ1 simultaneously using FUGENE reagent. Clones that stably express both subunits were selected with hygromycin and neomycin for ˜2 weeks. Clone #7 was chosen for the assay and was designated CHO-K1/sGC. CHO-K1/sGC cells were maintained in F-K12 medium containing 10% heat-inactivated Fetal Bovine Serum (FBS), 100 μg/mL penicillin/streptomycin, 0.5 mg/mL hygromycin and 0.25 mg/mL G418. On the day of the assay, cells were harvested in EBSS Assay Buffer (EAB) containing 5 mM MgCl2, 10 mM HEPES (4-(2-hydroxyethyl)piperazine-1-ethanesulfonic acid) and 0.05% BSA (bovine serum albumin) and cell density was adjusted to 2×10^6/mL with EAB. IBMX (3-isobutyl-1-methylxanthin, 0.5 mM) was added to inhibit degradation of cGMP. Compounds were diluted from DMSO stock solutions and added to the assay at a final DMSO concentration of 1%. Cells were incubated with compounds of the invention, in the presence and/or absence of 10 μM of 1H-(1,2,4)oxadiazolo(4,3-a) quinoxalin-1-one (ODQ), for 1 hr at 37° C. At the end of the incubation period, the reaction was terminated and the cells were lysed. The level of intracellular cGMP was determined using an HTRF-based assay kit (from CisBio, 62GM2PEC), which detects the displacement of a fluorescence labeled cGMP from its specific antibody. HTRF is a TR-FRET based technology that uses the principles of TRF and FRET. The amount of cGMP was plotted against compound concentration in PRISM software and the inflection point (IP) and maximum fold induction over DMSO control were derived from the plot.
Background: Time-resolved FRET reads energy transfer from a long-lived donor to a nearby acceptor.

Molecules are shown by their SMILES.

Take `Nc1nc(-c2nc(Cc3c(F)ccc(F)c3F)n3cc(F)ccc23)ncc1-c1ccnc2ccc(F)cc12` [Example 73, 5-(6-fluoroquinolin-4-yl)-2-[6-fluoro-3-(2,3,6-trifluoro-benzyl)imidazo[1,5-a]pyridin-1-yl]pyrimidin-4-amine]: the “Maximum fold induction over DMSO control” value stood at 234 fold and the EC50 amounted to 170 nM.
The corresponding values for `Cn1cc(-c2c(N)nc(-n3nc(Cc4c(F)ccc(F)c4F)c4cc(Cl)ccc43)nc2N)cn1` [Example 83, 2-[5-chloro-3-(2,3,6-trifluorobenzyl)-1H-indazol-1-yl]-5-(1-methyl-1H-pyrazol-4-yl)pyrimidine-4,6-diamine] are 127 fold and 34 nM.
The corresponding values for `Cc1c(-c2cnc(-c3nc(Cc4c(F)ccc(F)c4F)n4ncccc34)nc2N)c(C(F)(F)F)nn1C` [Example 3, 5-[1,5-dimethyl-3-(trifluoromethyl)-1H-pyrazol-4-yl]-2-[7-(2,3,6-trifluorobenzyl)imidazo[1,5-b]pyridazin-5-yl]pyrimidin-4-amine] are 71 fold and 499 nM.
In the same order, the values of `Nc1nc(-n2nc(CCC3CCCC3)c3ccccc32)nc(N)c1-c1cccnc1` [Example 208, 2-[3-(2-cyclopentylethyl)-1H-indazol-1-yl]-5-pyridin-3-ylpyrimidine-4,6-diamine] are 244 fold and 540 nM.
Turning to `Nc1nc(-n2nc(Cc3c(F)ccc(F)c3F)c3cc(Cl)ccc32)nc(N)c1NC(=O)C1CC1` [Example 178, N-{4,6-diamino-2-[5-chloro-3-(2,3,6-trifluorobenzyl)-1H-indazol-1-yl]pyrimidin-5-yl}cyclopropanecarboxamide], the “Maximum fold induction over DMSO control” value came to 74 fold and the EC50 stood at 524 nM.
In the same order, the values of `Nc1nc(-c2nc(Cc3c(F)ccc(F)c3F)n3cc(F)ccc23)ncc1-c1cccnc1` [Example 56, 2-[6-fluoro-3-(2,3,6-trifluorobenzyl)imidazo[1,5-a]pyridin-1-yl]-5-pyridin-3-ylpyrimidin-4-amine] are 322 fold and 397 nM.
In the same order, the values of `Cc1cc(-c2cnc(-c3nc(Cc4c(F)ccc(F)c4F)n4ncccc34)nc2N)ccn1` [Example 4, 5-(2-methylpyridin-4-yl)-2-[7-(2,3,6-trifluorobenzyl)imidazo[1,5-b]pyridazin-5-yl]pyrimidin-4-amine] are 55 fold and 178 nM.
For the molecule `Nc1nc(-c2nc(Cc3c(F)ccc(F)c3F)n3ncccc23)ncc1-c1cccc2ncccc12` [Example 7, 5-quinolin-5-yl-2-[7-(2,3,6-trifluorobenzyl)imidazo[1,5-b]pyridazin-5-yl]pyrimidin-4-amine], the “Maximum fold induction over DMSO control” value was 129 fold and the EC50 amounted to 296 nM.
